Data on six molecules can be found in publication PMC6774960, “Design, synthesis and biological evaluation of a series of new resveratrol analogues as potential anti-cancer agents” (Royal Society Open Science, 2019).

Bounds are passed on as bounds.

The test system of series [1] is HepG2 cells. Put plainly: MTT anti-proliferation assay, HepG2. In kind it is cell-based, human. Conditions: average of three determinations. As to the method:
(§1) The 22 synthesized resveratrol compounds were evaluated for anti-proliferative activities against three human cancer cell lines, including HepG2, A549 and HeLa cells, using 3-[4,5-dimethylthiazol-2-yl]-2,5 diphenyl tetrazolium bromide (MTT) assays. Paclitaxel, a well-known tubulin inhibitor, was used as a positive control. […] Therefore, the inhibitory activity of the compounds depended not only on the 2-position substitution of acrylic acid, but also on the 3-position substitution of acrylic acid.
(§2) The anti-proliferative and cytotoxicity activity was determined using MTT assay. Human cervical carcinoma HeLa cells, human hepatocellular carcinoma HepG2 cells, human lung carcinoma A549 cells were representative in the anti-proliferation assay, which were obtained from the Shanghai Institute of Cell Biology (Shanghai, China). Normal African green monkey kidney Vero cells were a gift from Dr Xiumiao He at Guangxi University for Nationalities. Normal human hepatocytes LO2 cells were a gift from Dr Xing Lin at Guangxi Medical University. The HepG2, Hela, LO2 and Vero cells were cultured in Dulbecco's modified Eagle's medium (DMEM, Gibco) and the A549 cells were cultured in RPMI1640 (Gibco), both media were supplemented with 10% fetal calf serum and antibiotics (100 IU ml^−1 penicillin, 100 IU ml^−1 streptomycin; Amresco).
(§3) Cells were seeded in 96-well microtiter plates at a density of 1 × 10^4 cells well^−1 and incubated with different concentrations of compound (6.25, 12.50, 25.00, 50.00 to 100.00 µM), cisplatin and paclitaxel in RPMI-1640 or DMEM at 37°C with 5% CO2. After 24 h, cell morphology was observed using a light microscope, and then 20 µl of MTT solution (5 mg ml^−1) was added to the well and incubated for 4 h, then cell survival was determined by measuring the optical density (OD) absorbance at a wavelength of 570 nm using an ELISA microplate reader. The inhibition rate (IR) following each compound treatment was determined by the following equation: IR (%) = (1 − ODexp/ODcon) × 100%, where ODexp and ODcon are the OD of the treated and untreated cells, respectively. Cisplatin and paclitaxel were used as positive control drugs.

In series [2] the test system is normal human hepatocytes LO2 cells. Description: MTT cytotoxicity test, LO2. In kind it is cell-based. The following applies: 24 h, average of three determinations. The method, then:
(§4) Vero cells are non-tumorigenic cell lines and are important raw materials as the research and production of biological products. Vero cells show low tumorigenicity and had been approved for use in the production of human virus vaccines. Thus, Vero cells were chosen as a control for cytotoxicity. All compounds were evaluated for their cell toxicity against Vero and normal human hepatocytes cells line (LO2) using MTT assays.
as §2, §3
Background: Tetrazolium assays rely on reduction of a dye to a coloured formazan, in cell work by metabolically active cells.

The test system of series [3] is Vero cells. Put plainly: MTT cytotoxicity test, Vero. Conditions: 24 h, average of three determinations. In kind it is cell-based, African green monkey. As to the method: as §4, §2, §3
Series [4] concerns A549 cells. Put plainly: MTT anti-proliferation assay, A549. Conditions: average of three determinations. In kind it is cell-based, human. As to the method: as §1, §2, §3
The subject of series [5] is HeLa cells. Put plainly: MTT anti-proliferation assay, HeLa. In kind it is cell-based, human. The following applies: 24 h, average of three determinations. The method, then:
The 22 synthesized resveratrol compounds were evaluated for anti-proliferative activities against three human cancer cell lines, including HepG2, A549 and HeLa cells, using 3-[4,5-dimethylthiazol-2-yl]-2,5 diphenyl tetrazolium bromide (MTT) assays. Paclitaxel, a well-known tubulin inhibitor, was used as a positive control.
as §2
After 24 h, cell morphology was observed using a light microscope, and then 20 µl of MTT solution (5 mg ml^−1) was added to the well and incubated for 4 h, then cell survival was determined by measuring the optical density (OD) absorbance at a wavelength of 570 nm using an ELISA microplate reader. […] Cisplatin and paclitaxel were used as positive control drugs.

For series [6], the system named is HepG2 cells. Put plainly: Cell cycle assay by flow cytometry. Conditions: HepG2, 20 µM, 24 h. In kind it is cell-based, human. The method, then: To evaluate the effects of compound r on cell cycle progression of HepG2, cells were treated with compound r at different concentrations (0, 5, 15 and 45 µM) for 24 h and then examined by flow cytometry. The accumulation of cells in S phase increased with increasing concentration of compound r. Approximately 18.36 ± 1.93%, 19.39 ± 2.06%, 29.9 ± 0.87% and 34.24 ± 1.00% of cells were arrested in S phase in response to 0, 5, 15 and 45 µM compound r, respectively. In comparison, 39.56 ± 0.97% cells were arrested in S phase after treatment with 20 µM cisplatin for 24 h.
Figure 5. Cells treated with 0, 5, 15 and 45 µM compound r for 24 h were collected and analysed by flow cytometry. Images were representative of three independent experiments. Values represented the mean ± s.d.; versus blank, *p < 0.01, **p < 0.001; versus control ^#p < 0.01, ^##p < 0.001.
Cells were treated with compound r (0, 5, 15, 45 µM) or 20 µM of cisplatin as the control for 24 h. Cells were collected by centrifugation (1000 rpm, 5 min), washed with PBS and fixed with 70% ice-cold ethanol overnight at 4°C. The cell cycle was examined on a flow cytometer using a cell cycle analysis kit (Beyotime Biotechnologyin, China) in accordance with the manufacturer's instructions.

Series [7] concerns HepG2 cells. Put plainly: Morphologic observation by light microscope. In kind it is cell-based, human. The following applies: HepG2, cisplatin 20 µM, 24 h. The method, then: Morphological observations can directly reflect the effects of drugs on cells. HepG2 cells were cultured with increasing concentrations of compound r (0, 5, 15 and 45 µM) for 24 h and observed using a light microscope. The cell morphology was clearly altered with the increase in drug concentration (figure 2).
Figure 2. Effect of compound r on the microscopic examination of HepG2 cells. Morphology of HepG2 treated with compound r (0, 5, 15 and 45 µM) and cisplatin (20 µM) for 24 h. Light microscopy photographs, with 40× objective.
as §3

Series [8] can be described thus: MTT cytotoxicity test, LO2. In kind it is cell-based, human. The following applies: human, LO2 cells (normal human hepatocytes), average of three determinations. As to the method: as §4, §2, §3
Series [9] is described as follows: MTT cytotoxicity test, Vero. In kind it is cell-based, African green monkey. Conditions: African green monkey, Vero cells (normal African green monkey kidney), average of three determinations. The method, then: as §4, §2, §3

One may read the IC50 as the concentration needed to halve the response being measured. Broadly, the CC50 is the concentration that lowers cell viability or growth by half. With “3-(4-hydroxy-3-methoxy-5-nitrophenyl)-2-(4-methoxyphenyl) acrylic acid [compound s]”, the half-inhibitory concentration (IC50) was determined as 42 ± 4 µM in series [1] (24 h), 15 ± 4 µM in [4] (24 h) and 39 ± 2 µM in series [5]. For the same molecule, the CC50 in [2] is 83 ± 2 µM; in series [3] it was more than 100 µM.

As for `N.N.[Cl][Pt][Cl]` [cisplatin, reference compound], in series [6], the “cells arrested in S phase” value is 39.56 ± 0.97%. The cell morphology entry in series [7] was “rounded shape”.

What is called melting point is the temperature of the solid-liquid transition. `COc1ccc(C(=Cc2cccc(C(F)(F)F)c2)C(=O)O)cc1` [compound q, 2-(4-methoxyphenyl)-3-(3-(trifluoromethyl)phenyl) acrylic acid] came in with a melting point of 192 to 194 °C. For the same molecule, the IC50 in [1] (Homo sapiens, HepG2, 24 h) is 19 ± 2 µM. This molecule also came in with a CC50 at 24 h in series [8] of 98 ± 2 µM. For the same molecule, the CC50 at 24 h in series [9] was more than 100 µM. The same molecule displayed an IC50 in [4] (Homo sapiens, A549, 24 h) of 16 ± 3 µM. In addition, the IC50 in series [5] (Homo sapiens, HeLa) stood at 14 ± 1 µM.

Molecule `COc1ccc(C(=Cc2ccc(OC)c(OC)c2Cl)C(=O)O)cc1` [compound t, 3-(2-chloro-3,4-dimethoxyphenyl)-2-(4-methoxyphenyl) acrylic acid] yielded a melting point of 202 °C. For the same molecule, the midpoint of inhibition in series [1] (Homo sapiens, HepG2, 24 h), the IC50, lay at 93 ± 3 µM. In [8], this molecule yielded a CC50 at 24 h of 87 ± 2 µM. The same molecule gave a CC50 at 24 h in [9] of 85 ± 1 µM. Further, in series [4] (Homo sapiens, A549, 24 h), the half-inhibitory concentration (IC50) was more than 100 µM. Further, the IC50 in [5] (Homo sapiens, HeLa) stood at 24 ± 2 µM.

The molecule `COc1ccc(C(=Cc2c(Cl)ccc(Cl)c2Cl)C(=O)O)cc1` [compound u, 2-(4-methoxyphenyl)-3-(2,3,6-trichlorophenyl) acrylic acid] showed a melting point of 174 °C. This molecule displayed an IC50 in [1] (Homo sapiens, HepG2, 24 h) of more than 100 µM. Moreover, the half-maximal cytotoxic concentration (CC50) at 24 h in series [8] was determined as 35 ± 1 µM. This molecule also registered a CC50 at 24 h in series [9] of 38.6 ± 0.7 µM. The IC50 in [4] (Homo sapiens, A549, 24 h) was more than 100 µM. Moreover, the IC50 in series [5] (Homo sapiens, HeLa) was more than 100 µM.

In turn, `COc1ccc(C=C(C(=O)O)c2cc(C)cc(C)c2)cc1` [compound v, 2-(3,5-dimethylphenyl)-3-(4-methoxyphenyl) acrylic acid] came in with a melting point of 198 to 200 °C. Also, it took 100 ± 1 µM to reach half-maximal inhibition in [1] (Homo sapiens, HepG2, 24 h) (IC50). Moreover, in series [8], the CC50 at 24 h came out at 96 ± 6 µM. The molecule further came in with a CC50 at 24 h in [9] of more than 100 µM. The molecule also registered a concentration for half-maximal inhibition (IC50) in series [4] (Homo sapiens, A549, 24 h) of 61 ± 3 µM. It took 51.25 ± 0.01 µM to reach half-maximal inhibition in series [5] (Homo sapiens, HeLa) (IC50).
